# In patent US20190350931A1, “COMBINATION THERAPY” (GlaxoSmithKline Intellectual Property Development Limited, priority 2016, published 2019):
# What was measured:
# [1] = system: lymphoma cell lines (Z138, Granta-519, DOHH2, RL); test: RNA-sequencing of lymphoma cell lines; type: cell-based
# Method: FIG. 12: Gene expression changes in lymphoma cell lines treated with a PRMT5 inhibitor. A. Quantification of differentially expressed (DE) genes in lymphoma cell lines after Compound B (0.1 and 0.5 μM) treatment (days 2 and 4). B. Overlap of DE genes across lymphoma lines.
# A. Mechanisms of regulation of cellular splicing (adapted from Bezzi M. et al.). B. Analysis of intron expression in lymphoma lines treated with 0.1 or 0.5 μM Compound B.
# A. Quantification of isoform switches in 4 lymphoma cell lines treated with Compound B (0.1 and 0.5 μM) for 2 and 4 days. B. Overlap of isoform switches in 4 lymphoma lines. C. List of genes that undergo alternative splicing in all 4 lymphoma lines (overlap of 4 cell lines).
# PRMT5 methylates histones and proteins involved in RNA processing and therefore PRMT5 inhibition is expected to have a profound effect on cellular mRNA homeostasis. To further decipher cellular mechanisms that are regulated by PRMT5 and contribute to the cellular response to PRMT5 inhibitors, global gene expression changes were evaluated in lymphoma models sensitive to PRMT5 inhibition. […]
# First, gene expression changes were evaluated in lymphoma lines treated with increasing concentrations of PRMT5 tool molecule for 2 and 4 days (FIG. 12). […] The relevance of these genes in the mechanism of cellular response to PRMT5 inhibition is being evaluated. […]
# [2] = system: SDMA, MDM4 splicing, p53 in GBM and lymphoma cell lines; test: SDMA, MDM4 splicing and p53 in GBM and lymphoma cell lines; type: cell-based; settings: 1 μM
# Method: Next, effects on cellular methylation and the p53 pathway were evaluated in GBM cells treated with a PRMT5 inhibitor by measuring SDMA, p53 and p21 protein levels and MDM4 splicing (FIG. 27). […] Alternative MDM4 splicing was detected in all cell lines but SF539 which are p53 mutant and have low basal expression of the long MDM4 isoform (FIG. 27, panel A). p53 levels increased in all cell lines, while the induction of p21 protein was observed only in cell lines that have wild-type p53 (Z138 (MCL), U87-MG and A172 (GBM)). […] The role of p53 in the response of GBM cell lines to PRMT5 inhibition will be further tested in future studies. Additionally, the effects of PRMT5 inhibition on cell cycle and neural differentiation in GBM models are being explored.
# [3] = system: Type I and Type II PRMTs and lysine methyltransferases (KMTs); test: Methyltransferase selectivity panel (19 enzymes); type: biochemical; settings: for selectivity for PRMT5/MEP50 over the other methyltransferases: PRMT5 tool compounds
# Excerpt: FIG. 6: Phylogenetic tree highlighting the methyltransferases tested in the selectivity panel. […] PRMT9 is shown for relationship purposes only within the family tree and was not evaluated in the panel. Figure adapted from Richon V M. et al.
# PRMT9/FBXO11, which is the other Type II PRMT and the only PRMT to lack the THW loop, was not included due to the lack of a functional enzyme assay.
# [4] = system: breast and MCL cell lines; test: Longer-term (10-12 day) growth/death assay in breast and MCL cell lines; type: cell-based; settings: for response upon prolonged exposure: SKBR3, MDA-MB-468 and MCF-7 cells, 7-10 days
# PRMT5/MEP50 = PRMT5/MEP50 (Homo sapiens, UniProt O14744); test: PRMT5/MEP50 radioactive assay, 3H transfer from SAM to H4 peptide / protein substrate; type: biochemical; settings: close analogs of Compound C
# Z-138 MCL xenograft = test: 21-day efficacy study in Z-138 MCL xenograft model; type: in vivo
# Method: B. Quantified SDMA western data from tumors harvested at the end of the efficacy study (3 hours post last dose).
# MCL cell lines = test: 6-day growth/death assay in a panel of MCL lines; type: cell-based
# Excerpt: FIG. 18: Activity of PRMT5 inhibitor and ibrutinib as single agents and in combination in MCL cell lines. […] C.
# • The strongest mechanistic link currently described between PRMT5 and cancer is in MCL. PRMT5 is frequently overexpressed in MCL and is highly expressed in the nuclear compartment where it increases levels of histone methylation and silences a subset of tumor suppressor genes. Importantly, cyclin D1, the oncogene that is translocated in the vast majority of MCL patients, associates with PRMT5 and through a cdk4-dependent mechanism increases PRMT5 activity. PRMT5 mediates the suppression of key genes that negatively regulate DNA replication allowing for cyclin D1-dependent neoplastic growth. PRMT5 knockdown inhibits cyclin D1-dependent cell transformation causing death of tumor cells.
# [5] = system: panel of cancer cell lines; type: cell-based
# Excerpt: DLBCL-diffuse large B-cell lymphoma, GBM-glioblastoma, MCL-mantle cell lymphoma, MM-multiple myeloma
# The cell lines were selected to represent tumor types where PRMT5 activity has been reported to regulate key pathways and/or cell growth and survival (such as lymphoma and MCL, glioma, breast and lung cancer lines).
# GBM cell lines [6] = test: 2D 14-day growth/death CTG assay in GBM cell lines; type: cell-based; settings: only SF539 underwent apoptosis
# [7] = system: SDMA, MDM4 splicing, p53/p21 in Z138 cells; test: Dose-response of MDM4 splicing, SDMA and p53/p21 in Z138 cells; type: cell-based
# MDA-MB-468 xenograft = test: MDA-MB-468 triple negative breast cancer xenograft model; type: in vivo
# Method: Next, the efficacy of PRMT5 inhibition was evaluated in in vivo models of breast cancer.
# [8] = system: MDM4 splicing, p53 and p21 in MCL lines; test: MDM4 splicing (RT-PCR) and p53/p21 western in MCL lines; type: cell-based; settings: for p53 and p21 expression: Z138 cells, 200 nM Compound C, 5 μM Nutlin-3
# Method: To understand whether p53 activation is associated with MDM4 isoform switching, MDM4 alternative splicing was analyzed. […] The role of the p53 pathway in the biology of the response of p53 wild-type MCL cells to PRMT5 inhibition is being evaluated.
# GBM cell lines [9] = test: 2D 6-day growth/death CTG assay in GBM cell lines; type: cell-based; settings: with the exception of SF539
# breast cancer lines = test: Propidium iodide FACS cell cycle analysis of breast cancer lines; type: cell-based
# [10] = Z-138 (MCL) cells, all time points (days 3-10)
# [11] = ZR-75-1 cells, all time points (days 3-12)
# PRMT5/MEP50, sequence (O14744 whole entry): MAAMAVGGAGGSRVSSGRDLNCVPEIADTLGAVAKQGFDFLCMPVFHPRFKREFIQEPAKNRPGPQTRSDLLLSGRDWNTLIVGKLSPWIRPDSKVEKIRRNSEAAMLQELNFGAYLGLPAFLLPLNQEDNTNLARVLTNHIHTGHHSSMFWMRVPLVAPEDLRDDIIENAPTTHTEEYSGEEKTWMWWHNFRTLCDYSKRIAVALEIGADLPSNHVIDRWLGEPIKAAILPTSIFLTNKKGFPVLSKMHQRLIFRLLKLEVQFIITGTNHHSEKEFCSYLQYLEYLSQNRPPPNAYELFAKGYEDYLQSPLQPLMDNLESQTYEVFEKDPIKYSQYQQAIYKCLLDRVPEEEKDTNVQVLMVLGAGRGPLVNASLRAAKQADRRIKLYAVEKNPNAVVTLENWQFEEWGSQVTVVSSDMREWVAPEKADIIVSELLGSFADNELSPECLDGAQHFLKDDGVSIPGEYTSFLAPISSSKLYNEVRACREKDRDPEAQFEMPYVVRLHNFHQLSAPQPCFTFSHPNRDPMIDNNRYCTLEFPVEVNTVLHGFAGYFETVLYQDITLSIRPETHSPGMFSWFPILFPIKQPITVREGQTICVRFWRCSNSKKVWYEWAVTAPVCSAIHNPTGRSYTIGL
# PRMT5/MEP50, sequence (Q9BQA1 whole entry partner): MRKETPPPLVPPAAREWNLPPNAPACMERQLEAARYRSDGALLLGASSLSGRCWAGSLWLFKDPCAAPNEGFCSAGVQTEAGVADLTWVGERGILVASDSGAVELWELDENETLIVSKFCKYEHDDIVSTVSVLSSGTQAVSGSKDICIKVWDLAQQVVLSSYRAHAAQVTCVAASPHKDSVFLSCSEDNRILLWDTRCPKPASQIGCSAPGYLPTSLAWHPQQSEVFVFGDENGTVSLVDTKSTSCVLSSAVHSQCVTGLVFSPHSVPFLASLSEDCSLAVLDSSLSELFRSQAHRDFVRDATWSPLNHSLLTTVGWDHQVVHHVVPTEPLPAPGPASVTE
structure (smiles),measurement,setting,value
O=C(NC[C@H](O)CN1CCc2ccccc2C1)c1ccnc(NC2CCC2)c1 [Compound B],isoform switching,"[1]; 0.1 and 0.5 μM, 2 and 4 days",induces isoform switching for a subset of genes
same,intron splicing,[1]; 0.1 or 0.5 μM,attenuates the splicing of a subset of introns
same,MDM4 splicing,[2],induces alternative splicing of MDM4
same,SDMA levels,[2],decreases SDMA levels
same,p53,[2],activates p53
same,selectivity for PRMT5/MEP50 over the other methyltransferases,[3],Selectivity for PRMT5/MEP50 over the other methyltransferases was also observed
same,response upon prolonged exposure,[4],cytotoxic response
same,response,[4]; [10],profound overall net cell death
same,response,[4]; [11],cytostatic response
same,inhibitory potency compared with Compound C,PRMT5/MEP50,similar
CC(=O)N1CCC(Nc2cc(C(=O)NC[C@H](O)CN3CCc4ccccc4C3)ncn2)CC1 [Compound C],body weight loss,Z-138 MCL xenograft; all groups in all efficacy studies presented,no body weight loss
same,TGI,Z-138 MCL xenograft; summary for the xenograft models of mantle cell lymphoma,~100%
same,potency for any other tested enzyme,[3]; FIG. 6 legend,> 10^−5 M
same,"sensitivity (gIC50) of Z-138, Maver-1 and JVM-2",MCL cell lines,low
same,"sensitivity of Mino, Jeko-1",MCL cell lines,only moderately sensitive
same,growth response of breast cancer cell lines,[5]; 6-day growth/death assay,complete growth inhibition
same,gIC50,[5]; most sensitive lymphoma lines (MCL and DLBCL),single digit
same,nature of the cytostatic/cytotoxic response upon longer exposure,GBM cell lines [6],did not change
same,MDM4 RNA splicing and SDMA/p53/p21 levels,[7],induces dose-dependent changes
same,concentration above which SDMA levels were undetectable by Western blot,[7],above 8 nM
same,concentration above which changes in MDM4 splicing and p53/p21 protein expression were apparent,[7],above 8 nM
same,response upon prolonged exposure,[4],cytotoxic response
same,response,[4]; [10],profound overall net cell death
same,response,[4]; [11],cytostatic response
same,tumor growth inhibition (TGI),MDA-MB-468 xenograft; 100 mg/kg BID,83%
same,efficacy,MDA-MB-468 xenograft; 100 mg/kg QD,not efficacious
same,MDM4 isoform switching,[8]; Z138 and JVM-2 cells (both p53 wild-type),induced MDM4 isoform switching
same,p53 and p21 expression,[8],increased p53 and p21 expression to similar levels
same,nature of the response,GBM cell lines [9],largely cytostatic
same,cell death (increase in <2N),"breast cancer lines; 3 out of 4 breast cancer lines, after 7-10 days of treatment",induction of cell death
same,cell cycle distribution,"breast cancer lines; MCF-7 cells (p53 wild-type), day 2",accumulation of cells in G1 phase (2N)
same,cell cycle distribution,"breast cancer lines; MDA-MB-468 and SKBR-3, day 7 or day 10",decrease in G1 (2N) phase
same,cell cycle distribution,breast cancer lines; ZR-75-1 cells (p53 wild-type),minor effects on cell cycle distribution
O=C(NC[C@H](O)CN1CCc2ccccc2C1)c1cc(NC2COC2)ncn1 [Compound E],selectivity for PRMT5/MEP50 over the other methyltransferases,[3],Selectivity for PRMT5/MEP50 over the other methyltransferases was also observed
same,inhibitory potency compared with Compound C,PRMT5/MEP50,similar
CC(=O)N1CCC(Nc2cc(C(=O)NC[C@H](O)CN3CCc4ccccc4C3)ccn2)CC1 [Compound F],selectivity for PRMT5/MEP50 over the other methyltransferases,[3],Selectivity for PRMT5/MEP50 over the other methyltransferases was also observed
same,inhibitory potency compared with Compound C,PRMT5/MEP50,similar
"COc1ccc(C2=N[C@@H](c3ccc(Cl)cc3)[C@@H](c3ccc(Cl)cc3)N2C(=O)N2CCNC(=O)C2)c(OC(C)C)c1 [Nutlin-3, reference compound]",p53 and p21 expression,[8],increased p53 and p21 expression to similar levels
